Experimental data: patent US20230190844A1, “COMPOSITION AND METHOD FOR TREATING CANCER WITH CANNABINOIDS” (CANNABICS PHARMACEUTICALS INC., priority 2020, published 2023)

Key:
[1] = test system: cells of human colon cancer biopsy; test: Cell viability of human colon cancer biopsies; type: cell-based; conditions: CBDV 23.5 μM, CBG 20 μM, alone or combined
Experimental: The anti-tumor effect of combinations of cannabinoids CBCA, CBDV, CBDVA, THCV and CBGA on human colon cancer biopsies was tested. […] The obtained cell viability inhibition produced synergistic effects.
Table 18 illustrates (shown also graphically at FIG. 5A) the synergistic anti-tumor effect of a combination of the cannabinoids THCV (at a concentration of 24 μM) and CBCA (at a concentration of 14.5 μM) on colon cancer biopsies.
FIG. 6 illustrates graphically the combination of CBGA and CBDV on colon cancer biopsies taken from a patient. The concentration of each component was: CBGA (X2-51.2 μM), CBGA (X1-25.6 μM), CBDV (X2-47 μM), […].

[2] = test system: MCF-7 breast cancer cells; test: CellTiter-Glo (CTG) cell viability, MCF-7; type: cell-based; conditions: CBDV 23.5 μM, CBGA 20 μM, CBDVA 17.5 μM, THC-d8 17.5 μM; 48 hours; FIGS. 3A-3B
Experimental: (§1) The breast cancer cell line MCF-7 was exposed to each of CBDV (at a concentration of 23.5 μM) and CBGA (at a concentration of 20 μM) alone, and to a combination thereof at 37° C. for 48 hours. The viability of the tested cells was examined. The following Table 8 illustrates the obtained results (shown also graphically in FIGS. 3A-3B).

RKO cells = test: CellTiter-Glo (CTG) cell viability, RKO
Experimental: (§2) The colon cancer cell lines RKO, and HCT116 were exposed to various cannabinoid combinations, at 37° C. for 48 h. The viability of the tested cells was examined. Further, synergism was evaluated using the Bliss equation.
(§3) CBDV and CBGA were tested at concentrations of 46.9 μM and 51.2 μM, respectively (shown as X2 in FIGS. 4A-4B). The effect of contacting each cannabinoid on the cells at half the concentration (i.e., 23.4 μM and 25.6 μM for CBDV and CBGA, respectively) was further tested (shown as X1 in FIGS. 4A-4B). Mixtures of CBDV and CBGA each at a X1 concentration were further prepared (“low concentration solutions”). The effect of the low concentration solution on the viability of the cancer cells was tested. The testing of the effect of each solution on the cancer cells was determined by incubating the cells with each cannabinoid solution as well as a standard (control) comprising DMSO only at 37° C. for 48 h and cell viability was measured by CTG viability assay using a Varioskan™ LUX multimode microplate reader.
(§4) FIGS. 7A-7B illustrate the human colon cell lines (HCT116 and RKO) that were incubated with CBGA at a concentration of 35 μM, CBDV at a concentration of 25 μM, Capecitabine at a concentration of 250 μM, and a combination thereof.

A549 lung cancer cells = test: CellTiter-Glo (CTG) cell viability, A549; type: cell-based; conditions: CBDV 23.5 μM, CBGA 25.6 μM, CBDVA 25.6 μM, THC-d8 17.5 μM; 48 hours; FIGS. 2A-2B
Experimental: as §1, with “The lung” for “The breast”, “line A549” for “line MCF-7”, “of 25.6” for “of 20”, “and” for “and to”, “Table 6” for “Table 8”, “FIGS. 2A-2B).” for “FIGS. 3A-3B).”

HT-29 colon cancer cells = test: CellTiter-Glo (CTG) cell viability, HT-29; type: cell-based, human; conditions: CBDV 23.5 μM, CBGA 25.6 μM, THC-d8 17.5 μM; 48 hours; FIGS. 1A-1B
Experimental: The colon cancer cell line HT-29 was exposed to each of CBDV (at a concentration of 23.5 μM) and CBGA (at a concentration of 25.6 μM) alone, and a combination thereof and to each of CBGA (at a concentration of 25.6 μM) and THC-d8 (at a concentration of 17.5 μM) alone, and a combination thereof at 37° C. for 48 hours. The viability of the tested cells was examined. The following Tables 4 and 5 illustrate the obtained results (shown also graphically at FIGS. 1A and 1B).

HCT116 cells = test: CellTiter-Glo (CTG) cell viability, HCT-116
Experimental: as §2, §3, §4

SK-CO1 cells = test: Cell viability at varying CBGA:CBDV ratios, SK-CO1; conditions: Homo sapiens, SK-CO-1, read-out: % Cells Viability
Experimental: (§5) Human colon cell lines (SC-CO1, RKO, and HCT116) and a murine cell line (CT26) were incubated with varying molar ratios between CBGA and CBDV of 1:3.5 to 8.5:1. Cells' viability and corresponding synergy rankings were determined.

CT26 cells = test: Cell viability at varying CBGA:CBDV ratios, CT26; conditions: Mus musculus, CT26, read-out: % Cells Viability
Experimental: as §5

[3] = Homo sapiens, RKO, read-out: % Cells Viability
[4] = Homo sapiens, HCT-116, read-out: % Cells Viability

| SMILES | growth inhibition / anti-cancer effect in words [2] | viability at 10 µM (RKO cells; [3]) | viability at 15 µM (RKO cells; [3]) | viability at 25 µM (RKO cells; [3]) | viability at 30 µM (RKO cells; [3]) | viability at 35 µM (RKO cells; [3]) | growth inhibition / anti-cancer effect in words (A549 lung cancer cells) | growth inhibition / anti-cancer effect in words (HT-29 colon cancer cells) | viability at 10 µM (HCT116 cells; [4]) | viability at 15 µM (HCT116 cells; [4]) | viability at 25 µM (HCT116 cells; [4]) | viability at 30 µM (HCT116 cells; [4]) | viability at 35 µM (HCT116 cells; [4]) | viability at 10 µM (SK-CO1 cells) | viability at 15 µM (SK-CO1 cells) | viability at 25 µM (SK-CO1 cells) | viability at 30 µM (SK-CO1 cells) | viability at 35 µM (SK-CO1 cells) | viability at 10 µM (CT26 cells) | viability at 15 µM (CT26 cells) | further results |
| --- | --- | --- | --- | --- | --- | --- | --- | --- | --- | --- | --- | --- | --- | --- | --- | --- | --- | --- | --- | --- | --- |
| CCCCCc1cc(O)c(C/C=C(\C)CCC=C(C)C)c(O)c1 [CBG] |  |  |  |  |  |  |  |  |  |  |  |  |  |  |  |  |  |  |  |  | Viability [1]: 84 |
| CCCCCc1cc(O)c(C/C=C(\C)CCC=C(C)C)c(O)c1C(=O)O [CBGA, 3-[(2E)-3,7-dimethylocta-2,6-dienyl]-2,4-dihydroxy-6-pentylbenzoic acid] | slight growth inhibition effect | 119% | 119% | 94% | 75% | 59% | slight growth inhibition effect | slight growth inhibition effect | 115% | 112% | 104% | 97% | 90% | 108% | 110% | 101% | 91% | 76% | 102% | 102% | viability at 25.6 µM (RKO cells; Homo sapiens, RKO, 48 h): 103%; viability at 51.2 µM (RKO cells; Homo sapiens, RKO, 48 h): 53%; viability at 42.5 µM (RKO cells; [3]): 41%; viability at 25.6 µM (HCT116 cells; Homo sapiens, HCT-116, 48 h): 105%; viability at 51.2 µM (HCT116 cells; Homo sapiens, HCT-116, 48 h): 84%; viability at 42.5 µM (HCT116 cells; [4]): 72%; viability at 42.5 µM (SK-CO1 cells): 52%; viability at 25 µM (CT26 cells): 46%; viability at 30 µM (CT26 cells): 22%; viability at 35 µM (CT26 cells): 21%; viability at 42.5 µM (CT26 cells): 11% |
| CCCCCOC(=O)Nc1nc(=O)n([C@@H]2O[C@H](C)[C@@H](O)[C@H]2O)cc1F [Capecitabine, reference compound] |  |  |  |  |  |  |  |  |  |  |  |  |  |  |  |  |  |  |  |  | anti-cancer / toxicity effect on the cells in words (RKO cells; FIG. 7B, CBGA 35 μM, CBDV 25 μM, Capecitabine 250 μM): no toxicity effect; anti-cancer / toxicity effect on the cells in words (HCT116 cells; FIG. 7A, CBGA 35 μM, CBDV 25 μM, Capecitabine 250 μM): no toxicity effect |
| C=C(C)[C@H]1CCC(C)=C[C@@H]1c1c(O)cc(CCC)cc1O [CBDV, 2-((1S,6S)-3-methyl-6-(prop-1-en-2-yl)cyclohex-2-enyl)-5-propylbenzene-1,3-diol] | slight growth inhibition effect | 108% | 88% | 62% | 53% | 48% | slight growth inhibition effect | slight growth inhibition effect | 109% | 101% | 84% | 71% | 64% | 103% | 99% | 99% | 97% | 96% | 109% | 113% | viability at 23.4 µM (RKO cells; Homo sapiens, RKO, 48 h): 92%; viability at 46.9 µM (RKO cells; Homo sapiens, RKO, 48 h): 38%; viability at 5 µM (RKO cells; [3]): 112%; viability at 23.4 µM (HCT116 cells; Homo sapiens, HCT-116, 48 h): 94%; viability at 46.9 µM (HCT116 cells; Homo sapiens, HCT-116, 48 h): 64%; viability at 5 µM (HCT116 cells; [4]): 113%; viability at 5 µM (SK-CO1 cells): 104%; viability at 5 µM (CT26 cells): 108%; viability at 25 µM (CT26 cells): 108%; viability at 30 µM (CT26 cells): 99%; viability at 35 µM (CT26 cells): 90% |
